Numbers after ± are expanded uncertainties.
Conditions: Liquid, Vibrating tube method

CCCCO [butan-1-ol]
Conditions | mass density [kg/m3]
343.15 K, 44927 kPa | 804.186 ± 0.9
343.15 K, 47908 kPa | 806.033 ± 0.91
343.15 K, 50059 kPa | 807.349 ± 0.91
343.15 K, 52026 kPa | 808.534 ± 0.92
343.15 K, 59944 kPa | 813.181 ± 0.94
343.15 K, 61967 kPa | 814.212 ± 0.94
343.15 K, 65070 kPa | 815.911 ± 0.95
343.15 K, 66059 kPa | 816.518 ± 0.96
343.16 K, 34034 kPa | 797.101 ± 0.87
343.16 K, 54919 kPa | 810.24 ± 0.93
343.16 K, 57986 kPa | 812.021 ± 0.93
348.15 K, 88.8 kPa | 765.578 ± 0.81
348.15 K, 462.2 kPa | 765.945 ± 0.81
348.15 K, 859.8 kPa | 766.355 ± 0.81
348.15 K, 974.2 kPa | 766.465 ± 0.81
348.15 K, 1974.9 kPa | 767.461 ± 0.81
348.15 K, 3051.1 kPa | 768.513 ± 0.81
348.15 K, 5094 kPa | 770.529 ± 0.81
348.15 K, 10025 kPa | 775.087 ± 0.82
348.15 K, 14792 kPa | 779.258 ± 0.83
348.15 K, 20111 kPa | 783.649 ± 0.84
348.15 K, 22163 kPa | 785.27 ± 0.85
348.15 K, 28080 kPa | 789.8 ± 0.86
348.15 K, 30149 kPa | 791.333 ± 0.86
348.15 K, 32161 kPa | 792.797 ± 0.87
348.15 K, 33959 kPa | 793.985 ± 0.87
348.15 K, 35045 kPa | 794.751 ± 0.88
348.15 K, 37937 kPa | 796.729 ± 0.88
348.15 K, 40026 kPa | 798.192 ± 0.89
348.15 K, 42066 kPa | 799.57 ± 0.89
348.15 K, 47915 kPa | 803.304 ± 0.91
348.15 K, 49950 kPa | 804.611 ± 0.92
348.15 K, 52167 kPa | 805.991 ± 0.92
348.15 K, 55022 kPa | 807.759 ± 0.93
348.15 K, 57945 kPa | 809.531 ± 0.94
348.15 K, 60030 kPa | 810.761 ± 0.94
348.15 K, 64942 kPa | 813.608 ± 0.96
348.15 K, 66153 kPa | 814.319 ± 0.96
348.16 K, 291.7 kPa | 765.77 ± 0.81
348.16 K, 7050.2 kPa | 772.352 ± 0.82
348.16 K, 9003.2 kPa | 774.145 ± 0.82
348.16 K, 12187 kPa | 777.001 ± 0.83
348.16 K, 17899 kPa | 781.843 ± 0.84
348.16 K, 25100 kPa | 787.55 ± 0.85
348.16 K, 32942 kPa | 793.364 ± 0.87
348.16 K, 45051 kPa | 801.465 ± 0.9
348.16 K, 62063 kPa | 811.961 ± 0.95
353.15 K, 86.2 kPa | 760.995 ± 0.81
353.15 K, 336 kPa | 761.273 ± 0.81
353.15 K, 572.6 kPa | 761.533 ± 0.81
353.15 K, 926 kPa | 761.914 ± 0.81
353.15 K, 1016.4 kPa | 762.008 ± 0.81
353.15 K, 2992.1 kPa | 764.106 ± 0.81
353.15 K, 4963.9 kPa | 766.051 ± 0.81
353.15 K, 7000.9 kPa | 768.126 ± 0.82
353.15 K, 9062.3 kPa | 770.136 ± 0.82
353.15 K, 10005 kPa | 771.015 ± 0.82
353.15 K, 12128 kPa | 772.98 ± 0.83
353.15 K, 14954 kPa | 775.544 ± 0.83
353.15 K, 17977 kPa | 778.173 ± 0.84
353.15 K, 19937 kPa | 779.792 ± 0.84
353.15 K, 21894 kPa | 781.405 ± 0.85
353.15 K, 24908 kPa | 783.869 ± 0.85
353.15 K, 27850 kPa | 786.199 ± 0.86
353.15 K, 29936 kPa | 787.797 ± 0.86
353.15 K, 31876 kPa | 789.263 ± 0.87
353.15 K, 32961 kPa | 790.048 ± 0.87
353.15 K, 34945 kPa | 791.423 ± 0.88
353.15 K, 37913 kPa | 793.571 ± 0.89
353.15 K, 40143 kPa | 795.172 ± 0.89
353.15 K, 42067 kPa | 796.559 ± 0.9
353.15 K, 45002 kPa | 798.55 ± 0.9
353.15 K, 48029 kPa | 800.525 ± 0.91
353.15 K, 50145 kPa | 801.944 ± 0.92
353.15 K, 52082 kPa | 803.184 ± 0.92
353.15 K, 55132 kPa | 805.077 ± 0.93
353.15 K, 57980 kPa | 806.879 ± 0.94
353.15 K, 60098 kPa | 808.146 ± 0.95
353.15 K, 65063 kPa | 811.071 ± 0.96
353.16 K, 2113.4 kPa | 763.181 ± 0.81
353.16 K, 33964 kPa | 790.701 ± 0.88
353.16 K, 62043 kPa | 809.275 ± 0.95
353.16 K, 66024 kPa | 811.636 ± 0.96
358.15 K, 264.1 kPa | 755.935 ± 0.81
358.15 K, 508.4 kPa | 756.19 ± 0.81
358.15 K, 926.8 kPa | 756.64 ± 0.82
358.15 K, 1013.9 kPa | 756.732 ± 0.82
358.15 K, 3021.2 kPa | 758.947 ± 0.81
358.15 K, 4930 kPa | 760.98 ± 0.81
358.15 K, 10073 kPa | 766.29 ± 0.82
358.15 K, 12137 kPa | 768.259 ± 0.83
358.15 K, 14905 kPa | 770.903 ± 0.83
358.15 K, 17041 kPa | 772.871 ± 0.84
358.15 K, 17965 kPa | 773.738 ± 0.84
358.15 K, 22175 kPa | 777.415 ± 0.85
358.15 K, 25059 kPa | 779.849 ± 0.86
358.15 K, 28035 kPa | 782.278 ± 0.86
358.15 K, 30002 kPa | 783.844 ± 0.87
358.15 K, 31978 kPa | 785.37 ± 0.87
358.15 K, 32793 kPa | 786.01 ± 0.88
358.15 K, 33850 kPa | 786.716 ± 0.88
358.15 K, 35027 kPa | 787.554 ± 0.88
358.15 K, 37872 kPa | 789.731 ± 0.89
358.15 K, 40037 kPa | 791.31 ± 0.89
358.15 K, 42100 kPa | 792.749 ± 0.9
358.15 K, 47958 kPa | 796.761 ± 0.92
358.15 K, 50038 kPa | 798.154 ± 0.92
358.15 K, 52081 kPa | 799.474 ± 0.93
358.15 K, 55073 kPa | 801.393 ± 0.94
358.15 K, 57918 kPa | 803.161 ± 0.94
358.15 K, 60043 kPa | 804.453 ± 0.95
358.15 K, 62067 kPa | 805.674 ± 0.96
358.15 K, 64986 kPa | 807.407 ± 0.96
358.15 K, 66109 kPa | 808.067 ± 0.97
358.16 K, 95.1 kPa | 755.754 ± 0.81
358.16 K, 2083.9 kPa | 757.886 ± 0.81
358.16 K, 6993.5 kPa | 763.142 ± 0.82
358.16 K, 9030.2 kPa | 765.202 ± 0.82
358.16 K, 20162 kPa | 775.665 ± 0.84
358.16 K, 45054 kPa | 794.81 ± 0.91
363.15 K, 94 kPa | 752.456 ± 0.81
363.15 K, 334 kPa | 752.741 ± 0.81
363.15 K, 601.7 kPa | 753.061 ± 0.81
363.15 K, 892.9 kPa | 753.404 ± 0.81
363.15 K, 961.6 kPa | 753.487 ± 0.81
363.15 K, 1034.7 kPa | 753.567 ± 0.81
363.15 K, 1986 kPa | 754.594 ± 0.81
363.15 K, 2940.4 kPa | 755.648 ± 0.81
363.15 K, 4979.2 kPa | 757.84 ± 0.82
363.15 K, 9959.5 kPa | 762.855 ± 0.82
363.15 K, 11971 kPa | 764.806 ± 0.83
363.15 K, 14936 kPa | 767.534 ± 0.83
363.15 K, 17973 kPa | 770.255 ± 0.84
363.15 K, 19940 kPa | 771.991 ± 0.84
363.15 K, 24872 kPa | 776.146 ± 0.86
363.15 K, 27993 kPa | 778.673 ± 0.86
363.15 K, 30062 kPa | 780.285 ± 0.87
363.15 K, 31961 kPa | 781.745 ± 0.88
363.15 K, 33033 kPa | 782.563 ± 0.88
363.15 K, 34000 kPa | 783.178 ± 0.88
363.15 K, 35028 kPa | 783.945 ± 0.88
363.15 K, 37919 kPa | 786.081 ± 0.89
363.15 K, 39916 kPa | 787.488 ± 0.9
363.15 K, 42016 kPa | 788.986 ± 0.9
363.15 K, 47947 kPa | 793.03 ± 0.92
363.15 K, 50050 kPa | 794.458 ± 0.93
363.15 K, 52023 kPa | 795.718 ± 0.93
363.15 K, 54940 kPa | 797.589 ± 0.94
363.15 K, 57917 kPa | 799.479 ± 0.95
363.15 K, 59980 kPa | 800.724 ± 0.96
363.15 K, 62043 kPa | 802.008 ± 0.96
363.15 K, 64924 kPa | 803.734 ± 0.97
363.15 K, 66088 kPa | 804.418 ± 0.97
363.16 K, 6920.2 kPa | 759.821 ± 0.82
363.16 K, 8964.8 kPa | 761.886 ± 0.82
363.16 K, 21933 kPa | 773.696 ± 0.85
363.16 K, 44987 kPa | 791.029 ± 0.91
